Results on 7 molecules are retold here after ChEMBL document CHEMBL1909046, “DrugMatrix in vitro pharmacology data”.

The target in test [1] is T1, Adenosine receptor A1 (Homo sapiens, UniProt P30542).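 Also: radioligand binding assay at the adenosine A1 receptor, with DPCPX serving as the labelled ligand; in other assays of this panel Not Active means under 50% inhibition at 10 µM.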
T1 sequence (P30542 whole entry): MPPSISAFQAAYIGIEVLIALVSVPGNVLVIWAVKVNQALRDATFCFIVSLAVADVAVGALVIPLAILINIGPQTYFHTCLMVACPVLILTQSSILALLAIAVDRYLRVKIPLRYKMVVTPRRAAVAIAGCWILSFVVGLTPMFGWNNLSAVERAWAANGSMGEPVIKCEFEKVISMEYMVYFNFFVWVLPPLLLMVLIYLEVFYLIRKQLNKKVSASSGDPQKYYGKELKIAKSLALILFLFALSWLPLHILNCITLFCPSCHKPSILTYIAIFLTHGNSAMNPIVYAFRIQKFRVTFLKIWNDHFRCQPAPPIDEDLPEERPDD
It is filed as cell membranes, CHO, Membrane. Particulars: cho.

Test [2] has as its target Insulin receptor (Rattus norvegicus, UniProt P15127). Format: cell membranes, Wistar, Liver, Membrane. Also: in other assays of this panel Not Active means under 50% inhibition at 10 µM.
Test [3] deals with Prostaglandin G/H synthase 1 (Homo sapiens, UniProt P23219). The experiment in a line: biochemical. It is filed as tissue-based, Platelet.
The target in test [4] is T2, Alpha-2C adrenergic receptor (Homo sapiens, UniProt P18825).
T2 sequence (P18825 whole entry): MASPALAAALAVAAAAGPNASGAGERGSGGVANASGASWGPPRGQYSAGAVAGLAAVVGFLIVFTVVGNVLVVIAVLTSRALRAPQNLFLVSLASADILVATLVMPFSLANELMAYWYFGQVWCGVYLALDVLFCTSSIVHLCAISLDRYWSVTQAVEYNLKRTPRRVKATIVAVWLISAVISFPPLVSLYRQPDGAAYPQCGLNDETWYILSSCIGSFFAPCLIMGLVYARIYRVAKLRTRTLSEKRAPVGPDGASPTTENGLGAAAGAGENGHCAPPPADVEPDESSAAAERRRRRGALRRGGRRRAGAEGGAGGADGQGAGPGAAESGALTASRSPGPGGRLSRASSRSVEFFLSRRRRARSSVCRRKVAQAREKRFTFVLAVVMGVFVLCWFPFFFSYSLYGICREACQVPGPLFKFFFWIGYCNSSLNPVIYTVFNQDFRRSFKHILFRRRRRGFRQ
Put plainly: DRUGMATRIX: Adrenergic Alpha-2C radioligand binding (ligand: [3H] MK-912). Particulars: sf9. Format: cell membranes, Sf9, Membrane.

The target of test [5] is Vascular endothelial growth factor receptor 1 (Homo sapiens, UniProt P17948). The experiment in a line: biochemical. Format: cell-based, HUVEC. Particulars: huvec. Also: in other assays of this panel Not Active means under 50% inhibition at 10 µM.
Test [6] has as its target Acetylcholinesterase (Homo sapiens, UniProt P22303). The experiment in a line: DRUGMATRIX: Acetylcholinesterase enzyme inhibition (substrate: acetylthiocholine). Format: cell-based, HEK293. Particulars: hek293; Not Active = under 50% inhibition at 10 µM.
In test [7] the target is Beta-2 adrenergic receptor (Homo sapiens, UniProt P07550). Put plainly: DRUGMATRIX: Adrenergic beta2 radioligand binding (ligand: [3H] CGP-12177). To be noted: cho; Not Active = under 50% inhibition at 10 µM. It is filed as cell membranes, CHO, Membrane.
The target in test [8] is T3, Glucocorticoid receptor (Homo sapiens, UniProt P04150). Also: in other assays of this panel Not Active means under 50% inhibition at 10 µM.
T3 sequence (P04150 whole entry): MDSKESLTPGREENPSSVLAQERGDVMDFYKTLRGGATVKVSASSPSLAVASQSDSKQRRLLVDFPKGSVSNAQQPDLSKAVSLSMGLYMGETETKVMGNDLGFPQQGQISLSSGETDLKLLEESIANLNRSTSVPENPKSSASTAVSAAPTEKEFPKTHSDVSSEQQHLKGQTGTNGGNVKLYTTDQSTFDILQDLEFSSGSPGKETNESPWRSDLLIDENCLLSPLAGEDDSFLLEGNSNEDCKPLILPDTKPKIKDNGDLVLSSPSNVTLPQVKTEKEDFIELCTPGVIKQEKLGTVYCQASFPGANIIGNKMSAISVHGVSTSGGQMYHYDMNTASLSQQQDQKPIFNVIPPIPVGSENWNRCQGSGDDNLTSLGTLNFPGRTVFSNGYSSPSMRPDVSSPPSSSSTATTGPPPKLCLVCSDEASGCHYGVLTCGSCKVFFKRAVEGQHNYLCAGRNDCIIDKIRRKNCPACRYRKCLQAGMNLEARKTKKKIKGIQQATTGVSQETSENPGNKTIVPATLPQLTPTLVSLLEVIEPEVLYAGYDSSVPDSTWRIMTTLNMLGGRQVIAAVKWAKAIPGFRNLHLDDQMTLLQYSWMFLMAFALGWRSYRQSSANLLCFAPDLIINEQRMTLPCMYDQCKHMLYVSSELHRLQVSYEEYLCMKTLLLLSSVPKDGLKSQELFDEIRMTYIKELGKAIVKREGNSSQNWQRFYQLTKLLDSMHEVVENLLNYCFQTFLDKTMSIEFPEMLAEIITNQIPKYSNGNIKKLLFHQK
To be noted: hela s3.

Insulin receptor, sequence (P15127 27-759 limits assumed): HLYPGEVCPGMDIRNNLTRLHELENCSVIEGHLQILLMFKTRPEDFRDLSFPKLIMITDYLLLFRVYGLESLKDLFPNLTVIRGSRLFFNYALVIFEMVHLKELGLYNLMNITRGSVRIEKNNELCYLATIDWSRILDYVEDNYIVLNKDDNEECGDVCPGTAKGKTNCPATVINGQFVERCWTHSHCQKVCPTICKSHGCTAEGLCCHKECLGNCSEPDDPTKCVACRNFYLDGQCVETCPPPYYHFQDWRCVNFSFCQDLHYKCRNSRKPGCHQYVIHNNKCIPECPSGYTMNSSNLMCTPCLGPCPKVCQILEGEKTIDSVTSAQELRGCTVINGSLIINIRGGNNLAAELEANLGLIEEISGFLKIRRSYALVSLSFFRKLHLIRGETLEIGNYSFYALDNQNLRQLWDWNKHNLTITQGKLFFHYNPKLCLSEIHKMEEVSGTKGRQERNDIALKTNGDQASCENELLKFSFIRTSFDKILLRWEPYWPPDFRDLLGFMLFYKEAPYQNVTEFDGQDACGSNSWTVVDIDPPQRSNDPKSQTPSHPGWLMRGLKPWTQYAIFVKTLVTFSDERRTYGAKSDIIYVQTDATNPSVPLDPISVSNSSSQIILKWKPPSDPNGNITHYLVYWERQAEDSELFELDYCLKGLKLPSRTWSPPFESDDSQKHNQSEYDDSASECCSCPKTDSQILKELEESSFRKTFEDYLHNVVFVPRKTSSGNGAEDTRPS
Insulin receptor, sequence (P15127 764-1383 limits assumed): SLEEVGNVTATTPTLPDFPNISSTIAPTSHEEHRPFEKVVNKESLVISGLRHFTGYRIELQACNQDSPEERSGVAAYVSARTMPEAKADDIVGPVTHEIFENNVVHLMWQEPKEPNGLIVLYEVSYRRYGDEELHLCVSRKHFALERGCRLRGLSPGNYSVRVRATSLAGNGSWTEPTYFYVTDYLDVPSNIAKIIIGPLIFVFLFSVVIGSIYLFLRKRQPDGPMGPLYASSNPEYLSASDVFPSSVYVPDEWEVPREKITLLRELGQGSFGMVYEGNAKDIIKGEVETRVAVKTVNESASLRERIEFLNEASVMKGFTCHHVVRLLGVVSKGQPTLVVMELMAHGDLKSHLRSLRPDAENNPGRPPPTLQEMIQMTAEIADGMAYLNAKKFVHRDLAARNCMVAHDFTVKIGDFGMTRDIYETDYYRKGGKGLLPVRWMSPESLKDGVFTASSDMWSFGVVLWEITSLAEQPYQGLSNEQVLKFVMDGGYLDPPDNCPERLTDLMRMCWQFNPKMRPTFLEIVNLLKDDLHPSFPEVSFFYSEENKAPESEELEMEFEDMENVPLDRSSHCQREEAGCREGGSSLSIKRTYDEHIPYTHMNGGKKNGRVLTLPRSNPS
Acetylcholinesterase, sequence (P22303 whole entry): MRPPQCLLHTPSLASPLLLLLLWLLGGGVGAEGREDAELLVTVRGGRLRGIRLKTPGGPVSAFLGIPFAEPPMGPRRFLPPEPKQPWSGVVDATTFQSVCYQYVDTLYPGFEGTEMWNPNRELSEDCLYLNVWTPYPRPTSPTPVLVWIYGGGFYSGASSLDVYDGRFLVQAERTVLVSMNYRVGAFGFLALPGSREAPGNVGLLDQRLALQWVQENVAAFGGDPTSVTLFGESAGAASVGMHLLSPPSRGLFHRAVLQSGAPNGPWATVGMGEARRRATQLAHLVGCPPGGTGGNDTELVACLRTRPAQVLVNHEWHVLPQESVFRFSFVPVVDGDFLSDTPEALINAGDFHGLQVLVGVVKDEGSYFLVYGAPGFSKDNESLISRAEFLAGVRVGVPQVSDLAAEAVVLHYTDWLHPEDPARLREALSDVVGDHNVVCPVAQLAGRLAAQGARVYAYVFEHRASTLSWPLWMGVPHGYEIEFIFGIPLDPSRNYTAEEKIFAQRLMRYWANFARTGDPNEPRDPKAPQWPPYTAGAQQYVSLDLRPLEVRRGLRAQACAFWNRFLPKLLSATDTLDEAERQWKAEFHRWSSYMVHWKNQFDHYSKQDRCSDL
Prostaglandin G/H synthase 1, sequence (P23219 whole entry): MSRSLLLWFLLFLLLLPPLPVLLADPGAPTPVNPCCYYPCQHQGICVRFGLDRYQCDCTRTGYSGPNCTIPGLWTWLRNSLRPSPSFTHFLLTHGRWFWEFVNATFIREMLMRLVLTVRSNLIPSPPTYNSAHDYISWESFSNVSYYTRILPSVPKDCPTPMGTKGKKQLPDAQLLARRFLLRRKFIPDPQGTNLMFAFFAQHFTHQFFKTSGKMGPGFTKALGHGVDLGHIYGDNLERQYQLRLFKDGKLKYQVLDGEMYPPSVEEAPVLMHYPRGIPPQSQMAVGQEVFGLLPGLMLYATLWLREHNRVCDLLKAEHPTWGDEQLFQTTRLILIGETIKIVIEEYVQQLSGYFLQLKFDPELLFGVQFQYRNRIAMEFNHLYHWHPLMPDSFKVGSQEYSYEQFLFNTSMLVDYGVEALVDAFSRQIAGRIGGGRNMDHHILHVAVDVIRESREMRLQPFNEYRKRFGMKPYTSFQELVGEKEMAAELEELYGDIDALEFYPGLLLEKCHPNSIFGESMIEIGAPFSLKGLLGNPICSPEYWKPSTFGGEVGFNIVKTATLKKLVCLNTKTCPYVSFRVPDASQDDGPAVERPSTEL
Vascular endothelial growth factor receptor 1, sequence (P17948 whole entry): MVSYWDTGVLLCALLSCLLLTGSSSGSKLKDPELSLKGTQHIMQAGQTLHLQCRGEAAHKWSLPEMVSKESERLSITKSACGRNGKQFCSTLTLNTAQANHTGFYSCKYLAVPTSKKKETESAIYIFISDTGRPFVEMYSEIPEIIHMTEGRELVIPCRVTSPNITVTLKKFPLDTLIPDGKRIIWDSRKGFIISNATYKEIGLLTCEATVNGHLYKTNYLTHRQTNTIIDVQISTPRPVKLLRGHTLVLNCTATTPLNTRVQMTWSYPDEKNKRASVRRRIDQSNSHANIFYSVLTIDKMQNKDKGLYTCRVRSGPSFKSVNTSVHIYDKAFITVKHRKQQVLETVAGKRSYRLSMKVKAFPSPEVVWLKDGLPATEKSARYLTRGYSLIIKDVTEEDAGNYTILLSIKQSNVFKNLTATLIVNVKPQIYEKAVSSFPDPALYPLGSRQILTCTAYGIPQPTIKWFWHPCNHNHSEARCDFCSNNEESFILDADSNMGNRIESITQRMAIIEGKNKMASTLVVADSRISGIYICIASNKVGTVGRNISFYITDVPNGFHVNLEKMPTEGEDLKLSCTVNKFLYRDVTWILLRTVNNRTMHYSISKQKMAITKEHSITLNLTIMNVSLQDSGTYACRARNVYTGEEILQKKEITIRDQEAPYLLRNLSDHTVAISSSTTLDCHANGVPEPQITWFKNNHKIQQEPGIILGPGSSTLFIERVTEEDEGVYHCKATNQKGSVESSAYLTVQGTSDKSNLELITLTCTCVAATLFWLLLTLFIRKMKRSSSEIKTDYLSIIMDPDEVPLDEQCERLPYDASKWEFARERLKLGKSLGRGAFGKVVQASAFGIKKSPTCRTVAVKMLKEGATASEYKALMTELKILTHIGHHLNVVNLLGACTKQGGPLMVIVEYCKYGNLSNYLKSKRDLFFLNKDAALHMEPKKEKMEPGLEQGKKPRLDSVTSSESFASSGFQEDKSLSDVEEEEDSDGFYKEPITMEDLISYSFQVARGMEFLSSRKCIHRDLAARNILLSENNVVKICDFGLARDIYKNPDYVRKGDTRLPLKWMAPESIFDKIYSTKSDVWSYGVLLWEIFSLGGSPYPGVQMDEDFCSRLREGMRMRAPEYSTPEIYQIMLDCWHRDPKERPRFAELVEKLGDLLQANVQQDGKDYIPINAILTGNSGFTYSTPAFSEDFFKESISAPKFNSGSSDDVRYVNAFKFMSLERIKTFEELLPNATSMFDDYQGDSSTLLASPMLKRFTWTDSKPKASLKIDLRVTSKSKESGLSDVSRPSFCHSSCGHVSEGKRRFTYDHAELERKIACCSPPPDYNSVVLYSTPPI

The IC50 is the concentration that inhibits the measured activity by half. As to `CS(=O)(=O)c1ccc([C@@H](O)[C@@H](CO)NC(=O)C(Cl)Cl)cc1` [THIAMPHENICOL], the IC50 result in test [1], in test [2], in test [3] (platelet), in test [4], in test [5] and in test [6] was “Not Active” in each case. For the same molecule, the IC50 entry in test [7] and in test [8] was “Not Active” in each case.

Turning to `CCN(CC)CCNC(=O)c1cc(S(C)(=O)=O)ccc1OC` [TIAPRIDE], the IC50 entry in test [1], in test [2], in test [3] (platelet), in test [4], in test [5] and in test [6] was “Not Active” throughout. Besides, the IC50 entry in test [7] and in test [8] was “Not Active” each time.

Take `NC1CCN(c2nc3c(cc2F)c(=O)c(C(=O)O)cn3-c2ccc(F)cc2F)C1` (configuration not stated) [TOSUFLOXACIN]: the IC50 result in test [1], in test [2], in test [3] (platelet), in test [4], in test [5] and in test [6] was “Not Active” in each case. In addition, the IC50 result in test [7] and in test [8] was “Not Active” throughout.

As for `O=C(Nc1ccc(Br)cc1)c1cc(Br)cc(Br)c1O` [TRIBROMSALAN], the IC50 entry in test [1] was “Not Active”; in test [2], “Not Active”; in test [3] (read-out: IC50), 2070 nM; in test [4], “Not Active”; in test [5], “Not Active”; in test [6] it was “Not Active”. In addition, the IC50 entry in test [7] and in test [8] was “Not Active” in each case.

Consider `CC(c1cc2ccccc2s1)N(O)C(N)=O` (configuration not stated) [ZILEUTON], for which the IC50 entry in test [1], in test [2], in test [3] (platelet), in test [4], in test [5] and in test [6] was “Not Active” each time. The IC50 result in test [7] and in test [8] was “Not Active” each time.

MANGANESE CHLORIDE ANHYDROUS: the IC50 entry in test [1], in test [2], in test [3] (platelet), in test [4], in test [5] and in test [6] was “Not Active” in each case. Besides, the IC50 entry in test [7] and in test [8] was “Not Active” each time. For the same molecule, the Ki result in test [1], in test [2], in test [3] (platelet), in test [4], in test [5] and in test [6] was “Not Active” in each case. Further, the Ki entry in test [7] and in test [8] was “Not Active” each time.

Regarding SODIUM ORTHOVANAD, the IC50 result in test [1], in test [2], in test [3] (platelet), in test [4], in test [5] and in test [6] was “Not Active” each time. Moreover, the IC50 entry in test [7] and in test [8] was “Not Active” in each case. Moreover, the Ki result in test [1], in test [2], in test [3] (platelet), in test [4], in test [5] and in test [6] was “Not Active” throughout. Besides, the Ki entry in test [7] and in test [8] was “Not Active” throughout.
